We go through 17 compounds from ChEMBL document CHEMBL3286384, “Synthesis, cytotoxicity, antimicrobial and anti-biofilm activities of novel pyrazolo[3,4-b]pyridine and pyrimidine functionalized 1,2,3-triazole derivatives” (Bioorg Med Chem Lett, 2014).

The term IC50 denotes the concentration that inhibits the measured activity by half. As usually defined, the MIC is the smallest concentration in the dilution series that meets the test's criterion for growth inhibition. As usually defined, the MBC is the smallest concentration meeting the test's criterion for killing.

Assay [1] concerns A549. In words: Cytotoxicity against human A549 cells after 24 hrs by MTT assay. It counts as functional, cell-based. Particulars: A549, 24 h.
The subject of assay [2] is MCF7. In words: Cytotoxicity against human MCF7 cells after 24 hrs by MTT assay. The assay is classed as functional, cell-based. Particulars: MCF7, 24 h.
In assay [3] the test system is DU-145. In words: Cytotoxicity against human DU145 cells after 24 hrs by MTT assay. The assay is classed as functional, cell-based. As to conditions: DU-145, 24 h. A general note: Tetrazolium assays rely on reduction of a dye to a coloured formazan, in cell work by metabolically active cells.
In assay [4] the test system is HeLa. The assay is described as follows: Cytotoxicity against human HeLa cells after 24 hrs by MTT assay. It counts as functional, cell-based.
Assay [5] concerns Micrococcus luteus. In words: Antimicrobial activity against Micrococcus luteus MTCC 2470 after 24 hrs by well diffusion method. It counts as functional. Particulars: MTCC 2470, 24 h. A general note: In agar diffusion tests the substance spreads into inoculated agar from a disc or well.
Assay [6] concerns Staphylococcus aureus. In words: Antimicrobial activity against Staphylococcus aureus MTCC 96 after 24 hrs by well diffusion method. It counts as functional. As to conditions: MTCC 96, 24 h.
Assay [7] has as its system Staphylococcus aureus. In words: Antimicrobial activity against Staphylococcus aureus MLS-16 MTCC 2940 after 24 hrs by well diffusion method. The assay is classed as functional. Particulars: MLS-16 MTCC 2940, 24 h.
The subject of assay [8] is Bacillus subtilis. The assay is described as follows: Antimicrobial activity against Bacillus subtilis MTCC 121 after 24 hrs by well diffusion method. The assay is classed as functional. As to conditions: MTCC 121, 24 h.
Assay [9] concerns Escherichia coli. In words: Antimicrobial activity against Escherichia coli MTCC 739 after 24 hrs by well diffusion method. It counts as functional. Particulars: MTCC 739, 24 h.
In assay [10] the test system is Pseudomonas aeruginosa. In words: Antimicrobial activity against Pseudomonas aeruginosa MTCC 2453 after 24 hrs by well diffusion method. Particulars: MTCC 2453, 24 h. It counts as functional.
Assay [11] concerns Raoultella planticola. In words: Antimicrobial activity against Klebsiella planticola MTCC 530 after 24 hrs by well diffusion method. The assay is classed as functional. Particulars: MTCC 530, 24 h.
The test system of assay [12] is Candida albicans. As to conditions: MTCC 3017.
Description: Antimicrobial activity against Candida albicans MTCC 3017 after 24 hrs by well diffusion method
Assay [13] concerns Micrococcus luteus. The assay is described as follows: Bactericidal activity against Micrococcus luteus MTCC 2470 after 24 hrs by agar plating method. It counts as functional. As to conditions: MTCC 2470, 24 h.
Assay [14] has as its system Staphylococcus aureus. The assay is described as follows: Bactericidal activity against Staphylococcus aureus MTCC 96 after 24 hrs by agar plating method. The assay is classed as functional. Particulars: MTCC 96, 24 h.
For assay [15], the system named is Staphylococcus aureus. The assay is described as follows: Bactericidal activity against Staphylococcus aureus MLS-16 MTCC 2940 after 24 hrs by agar plating method. It counts as functional. Particulars: MLS-16 MTCC 2940, 24 h.
The subject of assay [16] is Bacillus subtilis. In words: Bactericidal activity against Bacillus subtilis MTCC 121 after 24 hrs by agar plating method. It counts as functional. Particulars: MTCC 121, 24 h.
In assay [17] the test system is Escherichia coli. In words: Bactericidal activity against Escherichia coli MTCC 739 after 24 hrs by agar plating method. It counts as functional. As to conditions: MTCC 739, 24 h.
Assay [18] relates to Pseudomonas aeruginosa. In words: Bactericidal activity against Pseudomonas aeruginosa MTCC 2453 after 24 hrs by agar plating method. Particulars: MTCC 2453, 24 h. The assay is classed as functional.
The test system of assay [19] is Raoultella planticola. In words: Bactericidal activity against Klebsiella planticola MTCC 530 after 24 hrs by agar plating method. It counts as functional. As to conditions: MTCC 530, 24 h.
Assay [20] relates to Micrococcus luteus. The assay is described as follows: Antimicrobial activity against Micrococcus luteus MTCC 2470 assessed as inhibition of biofilm formation after 24 hrs by crystal violet staining-based assay. Particulars: MTCC 2470, 24 h. The assay is classed as functional, organism-based.
The test system of assay [21] is Staphylococcus aureus. In words: Antimicrobial activity against Staphylococcus aureus MTCC 96 assessed as inhibition of biofilm formation after 24 hrs by crystal violet staining-based assay. Particulars: MTCC 96, 24 h. The assay is classed as functional, organism-based.
Assay [22] deals with Staphylococcus aureus. The assay is described as follows: Antimicrobial activity against Staphylococcus aureus MLS-16 MTCC 2940 assessed as inhibition of biofilm formation after 24 hrs by crystal violet staining-based assay. The assay is classed as functional, organism-based. As to conditions: MLS-16 MTCC 2940, 24 h.
The test system of assay [23] is Raoultella planticola. In words: Antimicrobial activity against Klebsiella planticola MTCC 530 assessed as inhibition of biofilm formation after 24 hrs by crystal violet staining-based assay. It counts as functional, organism-based. Particulars: MTCC 530, 24 h.
Assay [24] concerns Pseudomonas aeruginosa. In words: Antimicrobial activity against Pseudomonas aeruginosa MTCC 2453 assessed as inhibition of biofilm formation after 24 hrs by crystal violet staining-based assay. It counts as functional, organism-based. Particulars: MTCC 2453, 24 h.

In brackets after ≈: the same amount, converted by molar mass. Activity calls are given as the source filed them.

Take `Nc1n[nH]c2nc(C(F)(F)F)ccc12`: the 50% inhibitory concentration (IC50) in assay [1] was found to be 22.4 µM; in assay [2], 58.4 µM; in [3] it was 29.1 µM; in assay [4], 60.2 µM.
The like results for `CCCCCCCCCCn1nc(-n2cc(Cn3c(N)nc(C(F)(F)F)cc3=O)nn2)c2ccc(C(F)(F)F)nc21` were, in that order, 14.3 µM, 15.7 µM, 17.1 µM and 13.4 µM.
For `CCOC(=O)Cn1nc(-n2cc(Cn3c(N)nc(C(F)(F)F)cc3=O)nn2)c2ccc(C(F)(F)F)nc21`, in that order: 16.2 µM, 12.2 µM, 18.3 µM and 11.4 µM.
The like results for `O=c1[nH]cc(F)c(=O)[nH]1` [FLUOROURACIL] were, in that order, 1.3 µM, 1.4 µM, 1.5 µM and 1.3 µM.
Regarding `CCCCCCCCn1nc(-n2cc(COc3cc(C(F)(F)F)nc(N)n3)nn2)c2ccc(C(F)(F)F)nc21`, the IC50 in [1] was found to be 5.7 µM; in assay [2] it was 24.7 µM; in assay [3], 6.3 µM; in assay [4], 22.7 µM. Also, the MIC in [5], in assay [6], in assay [7], in assay [8], in [9] and in [10] was above 250 µg/mL in each case. In addition, the MIC in [11] was above 250 µg/mL. The MIC result in assay [12] was “inactive”.
Turning to `C=CCn1nc(-n2cc(COc3cc(C(F)(F)F)nc(N)n3)nn2)c2ccc(C(F)(F)F)nc21`, the IC50 was above 100 µM in assay [1], 19.4 µM in [2], above 100 µM in assay [3] and 18.4 µM in [4]. Besides, the MIC in assay [5] is 7.8 µg/mL (≈ 16.1 µM); in assay [6] it was above 250 µg/mL; in [7], above 250 µg/mL; in assay [8], above 250 µg/mL; in assay [9] it was above 250 µg/mL; in [10] it was above 250 µg/mL. In addition, the MIC in assay [11] is above 250 µg/mL. Besides, the MIC entry in [12] was “inactive”.
As to `CCCCCCCCn1nc(-n2cc(Cn3c(N)nc(C(F)(F)F)cc3=O)nn2)c2ccc(C(F)(F)F)nc21`, the half-inhibitory concentration (IC50) in assay [1] came out at 10.1 µM; in assay [2] it was 11.3 µM; in [3], 12.2 µM; in assay [4] it was 9.4 µM.
Consider `O=C(O)c1cn(C2CC2)c2cc(N3CCNCC3)c(F)cc2c1=O` [CIPROFLOXACIN], for which the MIC in assay [5], in [6], in assay [7], in [8], in assay [9] and in assay [10] was 0.9 µg/mL (≈ 2.72 µM) in each case. The MIC in [11] is 0.9 µg/mL (≈ 2.72 µM). In addition, the minimal bactericidal concentration (MBC) in assay [13] worked out at 0.58 µg/mL (≈ 1.75 µM); in [14] it was 0.58 µg/mL (≈ 1.75 µM); in assay [15], 1.17 µg/mL (≈ 3.53 µM); in [16], 1.17 µg/mL (≈ 3.53 µM); in [17], 0.58 µg/mL (≈ 1.75 µM); in [18] it was 0.58 µg/mL (≈ 1.75 µM). In assay [19], this compound showed a minimal bactericidal concentration (MBC) of 1.17 µg/mL (≈ 3.53 µM). In addition, the MIC result in assay [12] is “inactive”.
For the compound `CCn1nc(-n2cc(Cn3c(N)nc(C(F)(F)F)cc3=O)nn2)c2ccc(C(F)(F)F)nc21`, the IC50 was above 100 µM in assay [1], 95.2 µM in assay [2], above 100 µM in assay [3] and 62.3 µM in [4].
As for `C#CCn1nc(-n2cc(COc3cc(C(F)(F)F)nc(N)n3)nn2)c2ccc(C(F)(F)F)nc21`, the half-maximal inhibitory concentration (IC50) in assay [1] is 4.1 µM; in assay [2], above 100 µM; in assay [3] it was 4.7 µM; in assay [4] it was above 100 µM. Also, the minimal inhibitory concentration (MIC) in [5], in [6], in assay [7], in assay [8], in [9] and in assay [10] was above 250 µg/mL throughout. This compound displayed an MIC in assay [11] above 250 µg/mL. For the same compound, the MIC entry in assay [12] was “inactive”.
Turning to `C=CCn1nc(-n2cc(Cn3c(N)nc(C(F)(F)F)cc3=O)nn2)c2ccc(C(F)(F)F)nc21`, the IC50 is above 100 µM in assay [1], 20.2 µM in assay [2], above 100 µM in assay [3] and 18.2 µM in assay [4].
As for `CCn1nc(-n2cc(COc3cc(C(F)(F)F)nc(N)n3)nn2)c2ccc(C(F)(F)F)nc21`, the 50% inhibitory concentration (IC50) was 25.4 µM in assay [1], above 100 µM in assay [2], 27.7 µM in assay [3] and above 100 µM in [4]. Besides, the minimum inhibitory concentration (MIC) in assay [5], in assay [6], in assay [7], in assay [8], in [9] and in assay [10] was above 250 µg/mL throughout. The same compound yielded a minimal inhibitory concentration (MIC) in assay [11] above 250 µg/mL. For the same compound, in [12], the MIC entry is “inactive”.
As for `Nc1nc(OCc2cn(-c3nn(CCC(F)(F)C(F)(F)C(F)(F)C(F)(F)C(F)(F)C(F)(F)C(F)(F)C(F)(F)F)c4nc(C(F)(F)F)ccc34)nn2)cc(C(F)(F)F)n1`, the half-maximal inhibitory concentration (IC50) in assay [1] is 33.7 µM; in [2], above 100 µM; in assay [3] it was 37.7 µM; in assay [4], above 100 µM. Besides, the MIC in assay [5], in assay [6], in [7], in assay [8], in assay [9] and in assay [10] was above 250 µg/mL each time. Further, the MIC in assay [11] is above 250 µg/mL. The MIC entry in [12] was “inactive”.
Consider `Nc1nc(C(F)(F)F)cc(=O)n1Cc1cn(-c2n[nH]c3nc(C(F)(F)F)ccc23)nn1`, for which the IC50 in [1] was determined as 9.5 µM; in [2] it was 14.4 µM; in [3] it was 10.5 µM; in [4], 16.1 µM.
As to `CC[C@H]1OC(=O)[C@H](C)[C@@H](O[C@H]2C[C@@](C)(OC)[C@@H](O)[C@H](C)O2)[C@H](C)[C@@H](O[C@@H]2O[C@H](C)C[C@H](N(C)C)[C@H]2O)[C@](C)(O)C[C@@H](C)C(=O)[C@H](C)[C@@H](O)[C@]1(C)O` [ERYTHROMYCIN], the IC50 amounted to 0.24 µg/mL (≈ 0.327 µM) in assay [20]; 0.32 µg/mL (≈ 0.436 µM) in [21]; 0.32 µg/mL (≈ 0.436 µM) in [22]; 0.21 µg/mL (≈ 0.286 µM) in assay [23]; 0.26 µg/mL (≈ 0.354 µM) in [24].
In the case of `Nc1nc(C(F)(F)F)cc(=O)n1Cc1cn(-c2nn(CCC(F)(F)C(F)(F)C(F)(F)C(F)(F)C(F)(F)C(F)(F)C(F)(F)C(F)(F)F)c3nc(C(F)(F)F)ccc23)nn1`, the concentration for half-maximal inhibition (IC50) was 68.2 µM in assay [1], above 100 µM in assay [2], 88.8 µM in assay [3] and above 100 µM in assay [4].
As to `C#CCn1nc(-n2cc(Cn3c(N)nc(C(F)(F)F)cc3=O)nn2)c2ccc(C(F)(F)F)nc21`, the 50% inhibitory concentration (IC50) turned out to be 21.2 µM in [1], 12.4 µM in assay [2], 23.4 µM in assay [3] and 10.2 µM in assay [4].
